Measurements: patent US20250171430A1, “PYRAZOLYL COMPOUNDS AS KV7 CHANNEL ACTIVATORS” (Biohaven Therapeutics Ltd., priority 2022, published 2025)

These compounds were tested against T1, Kv7.2/7.3 (Homo sapiens, UniProt O43525+O43526) (assay: Kv7.2/7.3 Activation Assay (Thallium Flux Assay)). Settings: hKV7.2/7.3 cell line; test compound at single concentration of 10 μM; fluorescence at 90 sec normalized to positive control (retigabine, 30 μM).
T1 construct: Kv7.2 tetracycline-induced, Kv7.3 constitutive
Format: cell-based
Text: The Thallium Flux Assay is used as a surrogate indicator of potassium channel activity.
The experimental protocol was adapted from the FluxOR™ II Green Potassium Ion Channel Assay User Guide (Pub. No. MAN0016084, Invitrogen). Conditions were optimized for the Kv7.2/7.3 cell line.
Cell Line: The hKV7.2/7.3 cell line was obtained from Chantest (cat. #CT6147).
Cell Culture: Kv7.2/7.3 cells were maintained in a media containing DMEM/F12; 50/50 (Fisher 11-330), 10% Fetal Bovine Serum (FBS) (Fisher 26-140), 100 units/mL Penicillin-Streptomycin (Fisher 15-140), 0.005 mg/ml Blasticidin (InvivoGen ant-bl-1), 0.5 mg/mL Geneticin (InvivoGen ant-gn-5), and 0.1 mg/mL Zeocin (Fisher R25001). One day prior to experimentation, cells were plated in 96 well clear bottom plates (Corning cat. #353219) in a media without Blasticidin, Geneticin, or Zeocin. In this cell line Kv7.3 channel expression is controlled by a constitutive promoter. Kv7.2 channel expression was induced by adding tetracycline (Sigma T7660) at a final concentration of 10 ng/mL overnight in a cell culture incubator at 37° C. and 5% CO2. On the day of assay, the cell culture medium in the 96-well plates was replaced by assay buffer containing the thallium-sensitive fluorescent sensor, FluxOR II Green prepared according to manufacturer's instructions. The 96-well plates were then incubated for 1 h at 37° C. Following the incubation, the FluxOR II Green-containing solution was replaced with extracellular solution.
Test Compound Plates: The test compound is diluted in a mixture of 0.1% DMSO/extracellular solution at a single concentration of 10 μM. Dilutions were made on a Biomek NXP (BECKMAN COULTER). Extracellular solution contained (in mM: 145 NaCl, 4 KCl, 2 CaCl2), 1 MgCl2, 10 HEPES, and 10 Glucose, pH 7.4).
Measurement and data analysis: Thallium-flux-mediated changes in intracellular fluorescence were made using a plate reader (Enspire, Perkin Elmer) set with an excitation wavelength of 475 nm and an emission wavelength of 530 nm. After a 15 sec baseline measurement, the stimulus buffer containing thallium and potassium was added to the 96-well plate containing FluxOR II Green-loaded cells and test compounds. Fluorescence values at 90 sec were normalized to the positive control (retigabine, 30 μM) and test compound activities were assigned categories according to the formula: “No Activity <0.15, “+” Moderate Activity 0.15-0.7, and “++” High Activity >0.7.

Structure (SMILES)	Kv7.2/7.3 Activity
Cn1nc(NC(=O)CC2(C(F)(F)F)CC2)c(C2CCC2)c1C1(C(F)(F)F)CCC1 [Compound 89, N-(4-cyclobutyl-1-methyl-5-(1-(trifluoromethyl)cyclobutyl)-1H-pyrazol-3-yl)-2-(1-(trifluoromethyl)cyclopropyl)acetamide]	++ (“++” High Activity ≥ 0.7)
CC(C)c1c(NC(=O)CC(C)(C)C)nn(C)c1-c1ccc(F)cc1 [Compound 22, N-(5-(4-fluorophenyl)-4-isopropyl-1-methyl-1H-pyrazol-3-yl)-3,3-dimethylbutanamide]	++ (“++” High Activity ≥ 0.7)
Cn1nc(NC(=O)CC(C)(C)C(F)(F)F)c(C2CCC2)c1-c1ccc(F)cc1F [Compound 97, N-(4-cyclobutyl-5-(2,4-difluorophenyl)-1-methyl-1H-pyrazol-3-yl)-4,4,4-trifluoro-3,3-dimethylbutanamide]	++ (“++” High Activity ≥ 0.7)
O=C(C[C@@H]1CC(F)(F)C1(F)F)Nc1nn(CCO)c(Cc2ccccc2)c1C1CCC1 [Compound 65, (R)-N-(5-benzyl-4-cyclobutyl-1-(2-hydroxyethyl)-1H-pyrazol-3-yl)-2-(2,2,3,3-tetrafluorocyclobutyl)acetamide]	++ (“++” High Activity ≥ 0.7)
Cn1nc(NC(=O)[C@@H]2CC2(F)F)c(C2CCC2)c1C1CC(F)(F)C1 [Compound 156, (S)-N-(4-cyclobutyl-5-(3,3-difluorocyclobutyl)-1-methyl-1H-pyrazol-3-yl)-2,2-difluorocyclopropane-1-carboxamide]	++ (“++” High Activity ≥ 0.7)
Cc1c(C2CCC2)c(NC(=O)CC2CC(F)(F)C2)nn1Cc1ccc(F)cc1 [Compound 93, N-(4-cyclobutyl-1-(4-fluorobenzyl)-5-methyl-1H-pyrazol-3-yl)-2-(3,3-difluorocyclobutyl)acetamide]	+ (“+” Moderate Activity 0.15-0.7)
C[C@@H](C(=O)Nc1nn(CC(F)(F)F)c(-c2ccc(F)cc2)c1C1CCC1)C1(C(F)(F)F)CC1 [Compound 143, (R)-N-(4-cyclobutyl-5-(4-fluorophenyl)-1-(2,2,2-trifluoroethyl)-1H-pyrazol-3-yl)-2-(1-(trifluoromethyl)cyclopropyl)propanamide]	− (“−” No Activity < 0.15)
Cn1nc(NC(=O)C[C@H]2CC(F)(F)C2(F)F)c(C2CCC2)c1Cc1ccccc1 [Compound 16, (S)-N-(5-benzyl-4-cyclobutyl-1-methyl-1H-pyrazol-3-yl)-2-(2,2,3,3-tetrafluorocyclobutyl)acetamide]	++ (“++” High Activity ≥ 0.7)
Cn1nc(NC(=O)[C@H]2C[C@]2(C)C(F)(F)F)c(C2CCC2)c1-c1ccc(F)cc1 [Compound 144, (1S,2S)-N-(4-cyclobutyl-5-(4-fluorophenyl)-1-methyl-1H-pyrazol-3-yl)-2-methyl-2-(trifluoromethyl)cyclopropane-1-carboxamide]	++ (“++” High Activity ≥ 0.7)
CCn1nc(NC(=O)Cc2ccccc2C(F)(F)F)c(C2CC2)c1C [Compound 8, N-(4-cyclopropyl-1-ethyl-5-methyl-1H-pyrazol-3-yl)-2-(2-(trifluoromethyl)phenyl)acetamide]	+ (“+” Moderate Activity 0.15-0.7)
Cn1nc(NC(=O)CC2CC(F)(F)C2)c(C2CCC2)c1CC1CC1 [Compound 80, N-(4-cyclobutyl-5-(cyclopropylmethyl)-1-methyl-1H-pyrazol-3-yl)-2-(3,3-difluorocyclobutyl)acetamide]	++ (“++” High Activity ≥ 0.7)
Cn1nc(NC(=O)[C@H]2CC2(F)F)c(C2CCC2)c1-c1ccc(OC(F)(F)F)cc1 [Compound 173, (R)-N-(4-cyclobutyl-1-methyl-5-(4-(trifluoromethoxy)phenyl)-1H-pyrazol-3-yl)-2,2-difluorocyclopropane-1-carboxamide]	− (“−” No Activity < 0.15)
Cn1nc(NC(=O)CC(C)(C)O)c(C2CCC2)c1-c1ccc(OC(F)(F)F)cc1 [Compound 55, N-(4-cyclobutyl-1-methyl-5-(4-(trifluoromethoxy)phenyl)-1H-pyrazol-3-yl)-3-hydroxy-3-methylbutanamide]	+ (“+” Moderate Activity 0.15-0.7)
N#CCn1nc(NC(=O)C[C@@H]2CC(F)(F)C2(F)F)c(C2CCC2)c1-c1ccc(F)cc1 [Compound 45, (R)-N-(1-(cyanomethyl)-4-cyclobutyl-5-(4-fluorophenyl)-1H-pyrazol-3-yl)-2-(2,2,3,3-tetrafluorocyclobutyl)acetamide]	++ (“++” High Activity ≥ 0.7)
Cn1nc(NC(=O)[C@@H]2CC2(F)F)c(C2CCC2)c1-c1ccc(F)cc1 [Compound 134, (S)-N-(4-cyclobutyl-5-(4-fluorophenyl)-1-methyl-1H-pyrazol-3-yl)-2,2-difluorocyclopropane-1-carboxamide]	− (“−” No Activity < 0.15)
CO[C@@H](CC(=O)Nc1nn(C)c(-c2ccc(F)c(F)c2)c1C1CCC1)C(F)(F)F [Compound 215, (S)-N-(4-cyclobutyl-5-(3,4-difluorophenyl)-1-methyl-1H-pyrazol-3-yl)-4,4,4-trifluoro-3-methoxybutanamide]	++ (“++” High Activity ≥ 0.7)
Cn1nc(NC(=O)c2ccccc2)c(C2CCC2)c1-c1ccc(F)cc1 [Compound 197, N-(4-cyclobutyl-5-(4-fluorophenyl)-1-methyl-1H-pyrazol-3-yl)benzamide]	++ (“++” High Activity ≥ 0.7)

Next, values leading:

Kv7.2/7.3 Activity	Structure (SMILES)
++ (“++” High Activity ≥ 0.7)	Cn1nc(NC(=O)NC2CC(F)(F)C2)c(C2CCC2)c1-c1cc(F)c(F)c(F)c1 [Compound 288, 1-(4-cyclobutyl-1-methyl-5-(3,4,5-trifluorophenyl)-1H-pyrazol-3-yl)-3-(3,3-difluorocyclobutyl)urea]
++ (“++” High Activity ≥ 0.7)	CN(CC(F)(F)F)C(=O)Nc1nn(C)c(C2CC(F)(F)C2)c1C1CCC1 [Compound 291, 3-(4-cyclobutyl-5-(3,3-difluorocyclobutyl)-1-methyl-1H-pyrazol-3-yl)-1-methyl-1-(2,2,2-trifluoroethyl)urea]
− (“−” No Activity < 0.15)	Cn1nc(NC(=O)[C@@H]2C[C@H]2F)c(C2CCC2)c1-c1ccc(F)cc1 [Compound 219, (1S,2R)-N-(4-cyclobutyl-5-(4-fluorophenyl)-1-methyl-1H-pyrazol-3-yl)-2-fluorocyclopropane-1-carboxamide]
++ (“++” High Activity ≥ 0.7)	Cn1nc(NC(=O)C[C@H]2CC(F)(F)C2(F)F)c(C2CCC2)c1-c1cc(F)cc(F)c1 [Compound 266, (S)-N-(4-cyclobutyl-5-(3,5-difluorophenyl)-1-methyl-1H-pyrazol-3-yl)-2-(2,2,3,3-tetrafluorocyclobutyl)acetamide]
++ (“++” High Activity ≥ 0.7)	Cn1nc(NC(=O)OCC2CC(F)(F)C2)c(C2CCC2)c1-c1ccc(F)cc1 [Compound 243, (3,3-difluorocyclobutyl)methyl (4-cyclobutyl-5-(4-fluorophenyl)-1-methyl-1H-pyrazol-3-yl)carbamate]
++ (“++” High Activity ≥ 0.7)	Cn1nc(NC(=O)OC2CC(F)(F)C2)c(C2CCC2)c1C1CC(F)(F)C1 [Compound 274, 3,3-difluorocyclobutyl (4-cyclobutyl-5-(3,3-difluorocyclobutyl)-1-methyl-1H-pyrazol-3-yl)carbamate]
++ (“++” High Activity ≥ 0.7)	Cn1nc(NC(=O)OC2CCC2)c(C2CCC2)c1C1CC(F)(F)C1 [Compound 295, cyclobutyl (4-cyclobutyl-5-(3,3-difluorocyclobutyl)-1-methyl-1H-pyrazol-3-yl)carbamate]
+ (“+” Moderate Activity 0.15-0.7)	Cn1nc(NC(=O)NC2CC(F)(F)C2)c(C2CCC2)c1-c1ccc(OC(F)(F)F)cc1 [Compound 285, 1-(4-cyclobutyl-1-methyl-5-(4-(trifluoromethoxy)phenyl)-1H-pyrazol-3-yl)-3-(3,3-difluorocyclobutyl)urea]
